These results are taken from article PMC9289885, “Antimicrobial Peptides against Multidrug-Resistant Pseudomonas aeruginosa Biofilm from Cystic Fibrosis Patients” (Journal of Medicinal Chemistry, 2022).

Series [1] concerns P. aeruginosa clinical CF isolates biofilm. Type of series: cell-based, Pseudomonas aeruginosa. Conditions: 24 h. On the procedure: The biofilm formation assay was performed as described for the MIC assay with some alterations and used either BM2 or CF patient sputum diluted 10-fold with BM2. Plates containing peptides at serial dilutions and bacteria were incubated for 24 h at 37 °C without agitation to allow biofilm formation. Unattached bacteria were then washed from plates, and the plates stained with 0.1% CV, followed by absorbance measurements at OD590 using a microplate auto reader. Data are presented as a percentage of the biofilm biomass compared to biofilm formed by untreated bacteria ± the standard error.

Series [2] has as its system P. aeruginosa CF patient isolates and PAO1. Type of series: cell-based, Pseudomonas aeruginosa. Conditions: PAO1, 24 h. As to the method: The MIC of the peptides was tested as previously described with minor adjustments.[50],[51] Briefly, peptide activity was examined in sterile 96-well polystyrene plates (Bar-Naor BN36010096D). Overnight cultures of P. aeruginosa were washed and resuspended in a BM2 medium. Aliquots of 50 μL of suspended bacteria (1 × 10^6 CFU/mL) were added to 50 μL of BM2 medium containing peptides in serial 2-fold dilutions (final concentration between 0.78 and 50 μM). Plates were incubated for 24 h at 37 °C while being agitated. Inhibition of growth was assessed by absorbance measurements at OD600 using a microplate auto reader. The MIC was defined as the concentration at which 90% inhibition of growth was observed after incubation for 24 h.

The subject of series [3] is CF sputum proteases. Kind of series: in vitro. As to conditions: human, supernatant of pooled CF patient sputum, diluted 10-fold. On the procedure: (§1) The peptide stability in CF patient sputum was tested as previously described.[52] Briefly, individual sputum samples from CF patients were pooled and diluted 10-fold with Dulbecco’s phosphate-buffered saline without calcium and magnesium. The suspensions were thoroughly mixed and then centrifuged at 1000 rpm for 10 min. D,L-K6L9 peptides and LL-37 were added to the supernatant to a final concentration of 100 μM, and the mixture was incubated at 37 °C for several time intervals. The reaction was stopped by adding 10 μL of 10% hydrogen chloride (HCl) to the 55 μL mixture. Residual peptide concentrations were determined via RP-HPLC on a Vydac C18 column (Grace Discovery Sciences, Deerfield, IL) using a linear gradient from 20% to 60% ACN in water (both containing 0.1% TFA) for 50 min. Data are presented as a percentage of peptide compared to the mixture without incubation ± standard errors.

Series [4] is described as follows: in vitro. Conditions: pooled CF patient sputum diluted 10-fold with PBS, supernatant, 100 μM peptide, 37 °C. On the procedure: as §1
Series [5] concerns P. aeruginosa CF isolates and PAO1. Type of series: cell-based, Pseudomonas aeruginosa. Conditions: 10 μM peptide, 1 h, 37 °C. As to the method: The suspensions were thoroughly mixed, centrifuged at 1000 rpm for 10 min, and filtered with a 0.22 μm filter. Supernatants were stored and used for killing assays and fluorescence microscopy, respectively. Then, 10^6 CFU/mL of P. aeruginosa was added to a 10% diluted sputum supernatant, followed by 10 μM peptides. The mixture was incubated at 37 °C for 1 h and then diluted and plated on freshly made LB agar plates.

The subject of series [6] is mammalian cells. As to conditions: cited from earlier work. The text has this:
We investigated the antibiofilm and antimicrobial activities of a series of peptides containing nine leucines and six lysines each, with a net charge of +7 (Table 1).

Structures are written as SMILES. Read-outs that look alike come from different tables or passages of the source.

Broadly, the MIC is the smallest concentration in the dilution series that meets the test's criterion for growth inhibition. A low value points to inhibition by little substance. `CC(C)C[C@H](NC(=O)[C@H](CC(C)C)NC(=O)[C@@H](CCCCN)NC(=O)[C@H](CC(C)C)NC(=O)[C@H](CC(C)C)NC(=O)[C@H](CCCCN)NC(=O)[C@@H](CCCCN)NC(=O)[C@@H](CC(C)C)NC(=O)[C@H](CC(C)C)NC(=O)[C@@H](CCCCN)NC(=O)[C@H](CCCCN)NC(=O)[C@H](CC(C)C)NC(=O)[C@@H](CC(C)C)NC(=O)[C@H](CCCCN)NC(=O)[C@@H](N)CC(C)C)C(N)=O` (stereo in doubt) [Amp1D]: the “inhibition of biofilm formation” value in series [1] is approximately 50%. Besides, in series [2], the minimal inhibitory concentration (MIC) was not above 3.12 µM. In series [3], this compound had a metabolised at 48 h, 100 μM of approximately 30%. In addition, in series [4] (6 h, RP-HPLC), the “degradation in CF sputum” value was “protected entirely from degradation”.

As for `CC[C@H](C)[C@H](NC(=O)[C@H](CCCCN)NC(=O)[C@H](CCC(=O)O)NC(=O)[C@H](CCCCN)NC(=O)[C@H](CO)NC(=O)[C@H](CCCCN)NC(=O)[C@H](CCCNC(=N)N)NC(=O)[C@H](Cc1ccccc1)NC(=O)[C@H](Cc1ccccc1)NC(=O)[C@H](CC(=O)O)NC(=O)CNC(=O)[C@H](CC(C)C)NC(=O)[C@@H](N)CC(C)C)C(=O)NCC(=O)N[C@@H](CCCCN)C(=O)N[C@@H](CCC(=O)O)C(=O)N[C@@H](Cc1ccccc1)C(=O)N[C@@H](CCCCN)C(=O)N[C@@H](CCCNC(=N)N)C(=O)N[C@H](C(=O)N[C@H](C(=O)N[C@@H](CCC(N)=O)C(=O)N[C@@H](CCCNC(=N)N)C(=O)N[C@H](C(=O)N[C@@H](CCCCN)C(=O)N[C@@H](CC(=O)O)C(=O)N[C@@H](Cc1ccccc1)C(=O)N[C@@H](CC(C)C)C(=O)N[C@@H](CCCNC(=N)N)C(=O)N[C@@H](CC(N)=O)C(=O)N[C@@H](CC(C)C)C(=O)N[C@H](C(=O)N1CCC[C@H]1C(=O)N[C@@H](CCCNC(=N)N)C(=O)N[C@H](C(=O)N[C@@H](CCC(=O)O)C(=O)N[C@@H](CO)C(N)=O)[C@@H](C)O)C(C)C)[C@@H](C)CC)C(C)C)[C@@H](C)CC` [LL-37, reference compound], in series [4] (30 min, residual peptide by RP-HPLC vs no incubation), the “degradation in CF sputum” value is on record as “fully degraded”. Besides, the killing rate in series [5] (PAO1, 10% mixed CF sputum, 10^6 CFU/mL, colony count vs untreated) amounted to 11.48%; in series [5] (control isolate 895 in 895 CF diluted sputum), 97.57%; in series [5] (isolate 24, 10% mixed CF sputum, 10^6 CFU/mL, colony count vs untreated) it was 13.23%; in series [5] (isolate 46, 10% mixed CF sputum, 10^6 CFU/mL, colony count vs untreated), 11.73%; in series [5] (isolate 82, 10% mixed CF sputum, 10^6 CFU/mL, colony count vs untreated), 34.24%.

Consider `CC(C)C[C@H](NC(=O)[C@H](CC(C)C)NC(=O)[C@@H](CC(C)C)NC(=O)[C@@H](CC(C)C)NC(=O)[C@H](CC(C)C)NC(=O)[C@@H](CC(C)C)NC(=O)[C@H](CC(C)C)NC(=O)[C@H](CC(C)C)NC(=O)[C@@H](CCCCN)NC(=O)[C@H](CCCCN)NC(=O)[C@@H](N)CCCCN)C(=O)N[C@@H](CC(C)C)C(=O)N[C@H](CCCCN)C(=O)N[C@@H](CCCCN)C(=O)N[C@@H](CCCCN)C(N)=O` (stereo in doubt) [Seg5D], for which, in series [3], the metabolised at 48 h, 100 μM is approximately 30%. The “degradation in CF sputum” value in series [4] (6 h, RP-HPLC) is given as “protected entirely from degradation”.

In the case of `CC(C)C[C@H](NC(=O)[C@H](CC(C)C)NC(=O)[C@@H](CC(C)C)NC(=O)[C@H](CC(C)C)NC(=O)[C@H](CCCCN)NC(=O)[C@H](CCCCN)NC(=O)[C@@H](CCCCN)NC(=O)[C@@H](CCCCN)NC(=O)[C@H](CCCCN)NC(=O)[C@@H](CCCCN)NC(=O)[C@H](CC(C)C)NC(=O)[C@H](CC(C)C)NC(=O)[C@@H](CC(C)C)NC(=O)[C@H](CC(C)C)NC(=O)[C@@H](N)CC(C)C)C(N)=O` (stereo in doubt) [Seg6D], the MIC in series [2] was not above 12.5 µM. Further, in series [3], the metabolised at 24 h, 100 μM is approximately 30% and the metabolised at 48 h, 100 μM was approximately 30%. The “degradation in CF sputum” value in series [4] (6 h, RP-HPLC) is listed as “protected entirely from degradation”.

In the case of `CC(C)C[C@H](NC(=O)[C@H](CC(C)C)NC(=O)[C@H](CCCCN)NC(=O)[C@H](CC(C)C)NC(=O)[C@H](CC(C)C)NC(=O)[C@H](CCCCN)NC(=O)[C@H](CCCCN)NC(=O)[C@H](CC(C)C)NC(=O)[C@H](CC(C)C)NC(=O)[C@H](CCCCN)NC(=O)[C@H](CCCCN)NC(=O)[C@H](CC(C)C)NC(=O)[C@H](CC(C)C)NC(=O)[C@H](CCCCN)NC(=O)[C@@H](N)CC(C)C)C(N)=O` [Amp1L], in series [6], the “toxicity to mammalian cells” value is listed as “toxic to mammalian cells”. In series [3], this compound registered a metabolised at 3 h, 100 μM of approximately 70% and a metabolised at 6 h, 100 μM of approximately 80%.
